This is an account of results in patent publication US20260273033A1, “NOVEL LIPID NANOPARTICLE FORMULATIONS FOR DELIVERY OF NUCLEIC ACIDS” (CureVac SE, priority 2023, published 2026).

Data set [1] in a line: Immune responses of mRNA vaccines in vivo, DPhyPE versus DSPC as neutral lipid. The following applies: DPhyPE versus DSPC as neutral lipid in LNP compositions.
For data set [2] the following is noted: in vivo; cited from earlier work.

As to `CC(C)CCCC(C)CCCC(C)CCCC(C)CC(=O)OC[C@H](COP(=O)(O)OCCN)OC(=O)CC(C)CCCC(C)CCCC(C)CCCC(C)C` (stereo partly drawn) [DPhyPE, 1,2-diphytanoyl-sn-glycero-3-phosphoethanolamine], the “immune responses of mRNA vaccines in vivo, neutral lipid comparison” value in data set [1] is given as “clear advantage over DSPC”.

Consider poly(2-methyl-2-oxazoline) [PMOZ], for which, in data set [2], the accumulation in tissue entry was “no significant accumulation in tissue” and the excretion entry was “rapidly excreted by the kidney”.
